Experimental data: patent publication US5994384A, “Pharmaceutical compositions of levo-enantiomers of medetomidine derivatives and their use” (Orion Corporation, priority 1995, dated 1999)

Experiments:
[1] = biological target: T1, adrenergic α-2 receptors (Homo sapiens, UniProt P08913); test: cell-based; set-up: This cell line has been used as a model system for studying adrenergic α-2 receptors; endogenous in cells; host or cells: HEL (human erythroleukemia) cells
T1 sequence (P08913 1-465): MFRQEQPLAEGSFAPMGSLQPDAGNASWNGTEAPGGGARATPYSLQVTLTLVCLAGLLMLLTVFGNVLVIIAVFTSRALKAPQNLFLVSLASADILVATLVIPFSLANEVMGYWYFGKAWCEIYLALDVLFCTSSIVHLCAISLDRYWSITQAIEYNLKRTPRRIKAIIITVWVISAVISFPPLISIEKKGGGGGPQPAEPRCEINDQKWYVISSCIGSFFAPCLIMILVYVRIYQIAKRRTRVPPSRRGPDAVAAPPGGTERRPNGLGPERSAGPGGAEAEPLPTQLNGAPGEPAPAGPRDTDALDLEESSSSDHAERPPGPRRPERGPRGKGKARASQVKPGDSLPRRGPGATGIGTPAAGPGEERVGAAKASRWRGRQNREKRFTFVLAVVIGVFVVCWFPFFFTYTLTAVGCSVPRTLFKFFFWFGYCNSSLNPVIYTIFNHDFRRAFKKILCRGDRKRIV
Method: The intracellular concentration of cAMP was measured by prelabelling the cells with [^3 H]adenine (Amersham, UK) as described by Jansson et al (1985, Eur. J. Pharmacol. […], 165). Separation of [^3 H]ATP and [^3 H]cAMP was achieved by the method of Salomon et al. (1974, Anal. Biochem. 58, 541). Conversion of cell-associated [^3 H]ATP to [^3 H]cAMP was expressed as a percentage of the total radioactivity and normalized to the percentage recovery of [^14 C]cAMP tracer.

[2] = biological target: T1, adrenergic α-2 receptors; details: HEL cells; for antagonism of receptor activation to UK 14,304 by prior administration: intracellular Ca2+, 10 μM UK 14,304, 10 μM I-medetomidine, 1 μM rauwolscine
Excerpt: This system was used to screen different adrenergic α-2 receptor agonists for functional purposes.
The cells were loaded with fura-2/AM (Molecular probes, Junction City, USA). […] The dye responses were calibrated by sequential addition of digitonin and EGTA at the end of the experiment to obtain maximal and minimal fluorescence values, respectively.

| increase in the production of cAMP ([1]; hel cells) [fold] | SMILES | decrease of the concentration of Ca2+ level ([2]; 10 μM compound) [nM] | antagonism of receptor activation to UK 14,304 by prior administration [2] | activation at 10 µM ([1]; HEL, read-out: further stimulation of forskolin stimulated cAMP production) [%] |
| --- | --- | --- | --- | --- |
| 10 | C=C[C@@]1(C)CC(=O)[C@]2(O)[C@@]3(C)[C@@H](O)CCC(C)(C)[C@@H]3[C@H](O)[C@H](OC(C)=O)[C@@]2(C)O1 [forskolin, reference compound] | – | – | – |
| – | Cc1cccc([C@@H](C)c2cnc[nH]2)c1C [I-medetomidine, Levomedetomidine] | -17 ± 2 | did not antagonise receptor activation to UK | 42 ± 27 |
| – | COC(=O)[C@H]1[C@H]2C[C@H]3c4[nH]c5ccccc5c4CCN3C[C@H]2CC[C@@H]1O [rauwolscine, reference compound] | – | did | – |
